According to patent US8344008B2 (Janssen Pharmaceutica NV, priority 2007, dated 2013):
Structures can show the parent of a compound that is named as a salt.

Target: T1, recombinant human LTA4 hydrolase (rhLTA4H) (Homo sapiens, UniProt P09960)
T1 construct: made in house; host or cells: Spodoptera frugiperda (Sf-9) cells, baculovirus (pFastBac1)
T1 sequence (P09960 1-611): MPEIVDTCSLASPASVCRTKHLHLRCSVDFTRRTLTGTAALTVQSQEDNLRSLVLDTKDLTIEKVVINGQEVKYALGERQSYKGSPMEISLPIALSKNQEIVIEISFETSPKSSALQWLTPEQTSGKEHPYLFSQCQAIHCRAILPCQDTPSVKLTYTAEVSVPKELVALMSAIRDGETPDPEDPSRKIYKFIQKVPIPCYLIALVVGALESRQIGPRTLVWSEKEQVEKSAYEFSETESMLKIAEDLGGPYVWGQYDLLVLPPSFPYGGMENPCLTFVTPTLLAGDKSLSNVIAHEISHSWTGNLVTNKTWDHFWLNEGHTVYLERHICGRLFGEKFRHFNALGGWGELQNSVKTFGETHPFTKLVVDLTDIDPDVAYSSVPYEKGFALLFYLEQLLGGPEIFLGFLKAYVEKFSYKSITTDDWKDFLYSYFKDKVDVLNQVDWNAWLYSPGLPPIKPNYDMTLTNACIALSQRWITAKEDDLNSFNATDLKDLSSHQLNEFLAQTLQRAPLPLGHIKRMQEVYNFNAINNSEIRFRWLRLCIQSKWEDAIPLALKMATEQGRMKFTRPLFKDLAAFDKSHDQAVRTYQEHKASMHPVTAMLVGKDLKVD
Assay: Recombinant Human LTA4 Hydrolase Assay for LTA4 Hydrolase Inhibitor Activity
Type: biochemical
Conditions: average of results obtained; LTB4 quantified by enzyme-linked immunoassay
Procedure, shortened: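 LTB4 formation, quantified by EIA after 10 min at rt, was the read-out once 9 ng LTA4 (free acid) was added to recombinant human enzyme (36 ng, Sf-9 expressed) that had sat 10 min with compound. Buffer: 0.1 M potassium phosphate pH 7.4 with fatty-acid-free BSA; IC50 by 4-parameter fit.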

Ki	Compound
170 nM	CCOC(=O)CN1CC2CN(Cc3ccc(Oc4nc5ccccc5s4)cc3)CC2C1 (stereo not drawn) [Example 155, {5-[4-(Benzothiazol-2-yloxy)-benzyl]-hexahydro-pyrrolo[3,4-c]pyrrol-2-yl}-acetic acid ethyl ester]
55 nM	c1ccc2sc(Oc3ccc(CN4CC5CNCC5C4)cc3)nc2c1 (stereo not drawn) [Example 83, 2-[4-(Hexahydro-pyrrolo[3,4-c]pyrrol-2-ylmethyl)-phenoxy]-benzothiazole hydrochloride]
124 nM	CC(=O)N1C[C@H]2C[C@@H]1CN2CCOc1ccc(Oc2nc3ccc(C)cc3s2)cc1 [Example 180, (R,R)-1-(5-{2-[4-(6-Methyl-benzothiazol-2-yloxy)-phenoxy]-ethyl}-2,5-diaza-bicyclo[2.2.1]hept-2-yl)-ethanone]
3620 nM	O=S(=O)(c1ccsc1)N1CC2CN(Cc3ccc(Oc4nc5ccccc5s4)cc3)CC2C1 (stereo not drawn) [Example 125, 2-{4-[5-(Thiophene-3-sulfonyl)-hexahydro-pyrrolo[3,4-c]pyrrol-2-ylmethyl]-phenoxy}-benzothiazole]
43 nM	NC(=O)N1CC2CN(Cc3ccc(Oc4nc5c(F)cccc5s4)cc3F)CC2C1 (stereo not drawn) [Example 161, 5-[2-Fluoro-4-(4-fluoro-benzothiazol-2-yloxy)-benzyl]-hexahydro-pyrrolo[3,4-c]pyrrole-2-carboxylic acid amide]
48 nM	O=C(O)CN1CC2CN(Cc3ccc(Oc4nc5ccccc5s4)cc3)CC2C1 (stereo not drawn) [Example 158, {5-[4-(Benzothiazol-2-yloxy)-benzyl]-hexahydro-pyrrolo[3,4-c]pyrrol-2-yl}-acetic acid]
273 nM	CS(=O)(=O)N1CCC2CN(Cc3ccc(Oc4nc5ccccc5s4)cc3)CC21 (stereo not drawn) [Example 127, 2-[4-(1-Methanesulfonyl-hexahydro-pyrrolo[3,4-b]pyrrol-5-ylmethyl)-phenoxy]-benzothiazole]
6 nM	CC(=O)N1C[C@@H]2C[C@H]1CN2Cc1ccc(Oc2nc3c(F)cccc3s2)cc1 [Example 207, (S,S)-1-{5-[4-(4-Fluoro-benzothiazol-2-yloxy)-benzyl]-2,5-diaza-bicyclo[2.2.1]hept-2-yl}-ethanone]
23 nM	CC(=O)N1C[C@H]2C[C@@H]1CN2CCc1ccc(Oc2nc3cc(F)ccc3s2)cc1 [Example 235, (R,R)-1-(5-{2-[4-(5-Fluoro-benzothiazol-2-yloxy)-phenyl]-ethyl}-2,5-diaza-bicyclo[2.2.1]hept-2-yl)-ethanone]
163 nM	CC(=O)N1C[C@@H]2C[C@H]1CN2Cc1ccc(Cc2nc3ccccc3s2)cc1 [Example 4, (S,S)-1-[5-(4-Benzothiazol-2-ylmethyl-benzyl)-2,5-diaza-bicyclo[2.2.1]hept-2-yl]-ethanone]
1740 nM	NC(=O)N[C@H]1C[C@H]2CC[C@@H](C1)N2CCOc1ccc(Oc2nc3cccc(Cl)c3s2)cc1 [Example 278, meso-endo-(8-{2-[4-(7-Chloro-benzothiazol-2-yloxy)-phenoxy]-ethyl}-8-aza-bicyclo[3.2.1]oct-3-yl)-urea]
30 nM	NCC(=O)N[C@H]1C[C@H]2CC[C@@H](C1)N2Cc1ccc(Oc2nc3ccccc3s2)cc1 [Example 56, meso-endo-2-Amino-N-{8-[4-(benzothiazol-2-yloxy)-benzyl]-8-aza-bicyclo[3.2.1]oct-3-yl}-acetamide]
17 nM	O=S(=O)(C1CC1)N1CC2CN(Cc3ccc(Oc4nc5ccccc5s4)cc3)CC2C1 (stereo not drawn) [Example 126, 2-[4-(5-Cyclopropanesulfonyl-hexahydro-pyrrolo[3,4-c]pyrrol-2-ylmethyl)-phenoxy]-benzothiazole]
17 nM	CS(=O)(=O)N[C@H]1C[C@H]2CC[C@@H](C1)N2CCc1ccc(Oc2nc3ccc(F)cc3s2)cc1 [Example 277, meso-endo-N-(8-{2-[4-(6-Fluoro-benzothiazol-2-yloxy)-phenyl]-ethyl}-8-aza-bicyclo[3.2.1]oct-3-yl)-methanesulfonamide]
24 nM	NC(=O)N1CC2CCN(Cc3ccc(Oc4nc5ccccc5s4)cc3)C2C1 (stereo not drawn) [Example 136, 1-[4-(Benzothiazol-2-yloxy)-benzyl]-hexahydro-pyrrolo[3,4-b]pyrrole-5-carboxylic acid amide]
